Drawing on US7148246B2, “Cycloalkyl derivatives having bioisosteric carboxylic acid groups, processes for their preparation and their use as pharmaceuticals” (Sanofi-Aventis Deutschland GmbH, priority 2003, dated 2006), this text covers EC50 for eight compounds.

The EC50 is the concentration needed to bring the measured effect to its halfway point. Read a high EC50 as a need for much substance.

The target in the test is T1, human PPARalpha (Homo sapiens, UniProt Q07869).
T1 construct: amino acids S167–Y468; expressed in transfected cells; host or cells: HEK (human embryo kidney) cells, stably transfected with pcDNA3 carrying the fusion construct
T1 sequence (Q07869 167-468): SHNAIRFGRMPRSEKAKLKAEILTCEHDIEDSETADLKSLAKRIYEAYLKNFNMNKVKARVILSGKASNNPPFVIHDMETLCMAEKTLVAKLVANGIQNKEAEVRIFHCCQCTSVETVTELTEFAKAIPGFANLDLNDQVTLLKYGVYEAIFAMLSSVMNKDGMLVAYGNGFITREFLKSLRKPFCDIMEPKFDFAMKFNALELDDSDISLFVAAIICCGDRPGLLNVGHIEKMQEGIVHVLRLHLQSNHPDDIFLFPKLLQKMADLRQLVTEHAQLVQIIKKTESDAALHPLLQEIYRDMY
Briefly: Cellular PPARalpha assay (stably transfected HEK luciferase reporter cell line). It is filed as cell-based. The settings on record: PPARalpha reporter cell line (HEK, GR-GAL4-humanPPARalpha-LBD), luciferase readout. The method, then: Determination of EC50 Values of PPAR Agonists in the Cellular PPARalpha Assay
The potency of substances which bind to human PPARalpha and activate in an agonistic manner is analyzed using a stably transfected HEK cell line (HEK=human embryo kidney) which is referred to here as PPARalpha reporter cell line. It contains two genetic elements, a luciferase reporter element (pdeltaM-GAL4-Luc-Zeo) and a PPARalpha fusion protein (GR-GAL4-humanPPARalpha-LBD) which mediates expression of the luciferase reporter element depending on a PPARalpha ligand. The stably and constitutively expressed fusion protein GR-GAL4-humanPPARalpha-LBD binds in the cell nucleus of the PPARalpha reporter cell line via the GAL4 protein portion to the GAL4 DNA binding motifs 5′-upstream of the luciferase reporter element which is integrated in the genome of the cell line. There is only little expression of the luciferase reporter gene without addition of a PPARalpha ligand if fatty acid-depleted fetal calf serum (cs-FCS) is used in the assay. PPARalpha ligands bind and activate the PPARalpha fusion protein and thereby bring about expression of the luciferase reporter gene. The luciferase which is formed can be detected by means of chemiluminescence via an appropriate substrate.
The PPARalpha reporter cell line was prepared in 2 stages. Firstly, the luciferase reporter element was constructed and stably transfected into HEK cells. For this purpose, five binding sites of the yeast transcription factor GAL4 (each 5′-CGGAGTACTGTCCTCCGAG-3′) (SEQ ID No.1) were cloned in 5′-upstream of a 68 bp-long minimal MMTV promoter (Genbank Accession #V01175). The minimal MMTV promoter section contains a […] and a TATA element in order to enable efficient transcription by RNA polymerase II. The cloning and sequencing of the GAL4-MMTV construct took place in analogy to the description of Sambrook J. et. al. (Molecular cloning, Cold Spring Harbor Laboratory Press, 1989). Then the complete Photinus pyralis gene (Genbank Accession #M15077) was cloned in 3′-downstream of the GAL4-MMTV element. After sequencing, the luceriferase reporter element consisting of five GAL4 binding sites, MMTV promoter and luciferase gene was recloned into a plasmid which confers zeocin resistance in order to obtain the plasmid pdeltaM-GAL4-Luc-Zeo. This vector was transfected into HEK cells in accordance with the statements in Ausubel, F. M. et al. (Current protocols in molecular biology, Vol. 1–3, John Wiley & Sons, Inc., 1995). […] In a second step, the PPARalpha fusion protein (GR-GAL4-humanPPARalpha-LBD was introduced into the stable cell clone described. For this purpose, initially the cDNA coding for the N-terminal 76 amino acids of the glucocorticoid receptor (Genbank Accession #P04150) was linked to the cDNA section coding for amino acids 1–147 of the yeast transcription factor GAL4 (Genbank Accession #P04386). The cDNA of the ligand-binding domain of the human PPARalpha receptor (amino acids S167–Y468; Genbank Accession #S74349) was cloned in at the 3′-end of this GR-GAL4 construct. The fusion construct prepared in this way (GR-GAL4-humanPPARalpha-LBD) was recloned into the plasmid pcDNA3 (from Invitrogen) in order to enable constitutive expression therein by the cytomegalovirus promoter. This plasmid was linearized with a restriction endonuclease and stably transfected into the previously described cell clone containing the luciferase reporter element. The finished PPARalpha reporter cell line which contains a luciferase reporter element and constitutively expresses the PPARalpha fusion protein (GR-GAL4-human PPARalpha-LBD) was isolated by selection with zeocin (0.5 mg/ml) and G418 (0.5 mg/ml).
The activity of PPARalpha agonists is determined in a 3-day assay which is described below: […]
(In general: In a reporter assay the amount or activity of a reporter protein is the signal.)
In the case of `Cc1oc(-c2ccc(F)cc2)nc1CO[C@H]1CCC[C@@H](OCc2cccc([N+](=O)[O-])c2)C1` (relative stereo) [VIII, 2-(4-Fluorophenyl)-5-methyl4-[cis-3-(3-nitrobenzyloxy)cyclohexyloxy-methyl]oxazole], the EC50 came out at 91 nM.

For the compound `Cc1oc(-c2ccc(F)cc2)nc1COC1CCCC(OC/C=C2\NC(=O)NC2=O)C1` (racemic) [XXIV, 5-[2-{cis-3-[2-(4-Fluorophenyl)-5-methyloxazol-4-ylmethoxy]cyclohexyloxy}-ethylidene]imidazolidine-2,4-dione], it took 227 nM to reach a half-maximal effect (EC50).

For `Cc1ccc(-c2nc(CO[C@@H]3CCC[C@H](/C=C4/SC(=O)NC4=O)C3)c(C)o2)cc1` (racemic) [Example XXXIV, 5-[1-[cis-3-(5-Methyl-2-tolyloxazol-4-ylmethoxy)cyclohexyl]methylidene]-thiazolidine-2,4-dione], it took 114 nM to reach a half-maximal effect (EC50).

The compound `COc1ccc(S(=O)(=O)O[C@H]2CCC[C@@H](OCc3nc(-c4ccc(F)cc4)oc3C)C2)c([N+](=O)[O-])c1` (relative stereo) [Example XXI, cis-3-[2-(4-fluorophenyl)-5-methyloxazol-4-ylmethoxy]cyclohexyl 4-methoxy-2-nitrobenzenesulfonate] returned an EC50 of 1250 nM.

For `Cc1ccc(-c2nc(COC3CCCC(CC4SC(=O)NC4=O)C3)c(C)o2)cc1` (stereo not drawn) [XXXV, 5-[cis-3-(5-Methyl-2-tolyloxazol-4-ylmethoxy)cyclohexylmethyl]thiazolidine-2,4-dione], a half-maximal effect (EC50) was put at 187 nM.

Regarding `Cc1cccc(-c2nc(COC3CCCC(OCCC4SC(=O)NC4=O)C3)c(C)o2)c1` (stereo not drawn) [Example XXVII, 5-{2-[(cis-3-(5-Methyl-2-tolyloxazol-4-ylmethoxy)cyclohexyloxy]ethyl}thiazolidine-2,4-dione], the concentration giving a half-maximal response (EC50) worked out at 726 nM.

Compound `Cc1oc(-c2ccc(F)cc2)nc1CO[C@@H]1CCC[C@H](OS(=O)(=O)c2cc([N+](=O)[O-])ccc2Cl)C1` (relative stereo) [Example XX, cis-3-[2-(4-fluorophenyl)-5-methyloxazol-4-ylmethoxy]cyclohexyl 2-chloro-5-nitrobenzenesulfonate] registered a half-maximal effective concentration (EC50) of 1930 nM.

Compound `Cc1oc(-c2ccc(F)cc2)nc1CO[C@@H]1CCC[C@H](OCCC2SC(=O)NC2=O)C1` (relative stereo) [Example XXVI, 5-(2-{cis-3-[2-(4-Fluorophenyl)-5-methyloxazol-4-ylmethoxy]cyclohexyloxy}-ethyl)thiazolidine-2,4-dione] yielded an EC50 of 709 nM.
